What was measured:
Type in all cases: cell-based, human
Pa13 gene [1] = assay: Pa13 gene expression by real-time RT-PCR in HuH7 hepatocytes
Text: (§1) Human hepatocyte HuH7 cells, which are epithelial cells of liver, were obtained from Japan Health Science Research Resources Bank (Osaka, Japan). Human primary adipocytes, which are connective tissue cells specialized for the synthesis and storage of fat, were obtained from Zen-Bio, Inc (Research Triangle Park, NC). Human primary skeletal muscle cells (SKMC) were obtained from Cambrex Bio Science (Walkersville, Md.). PPARα agonists, Wy14643 (Agatha, et al, 2000, Archives of Biochemistry and Biophysics 380:353-359) and fenofibrates were obtained from Cayman Chemical (Ann Arbor, Mich.) and Sigma (St Louis, Mo.), respectively.
(§2) Human HuH7 cells were cultured in Dulbecco's Modified Eagle Medium with 10% Fetal Bovine Serum (Gibco, N.Y.). Cells were treated with charcoal-stripped, delipidated calf serum (5%) (Sigma, St Louis, Mo.) for about 4-18 hours. Then, cells were treated with different concentrations of PPARα agonist (Wy14643 or fenofibrates) for about 20-24 h. Human SKM cells were cultured in Skeletal Muscle Growth Medium (Cambrex Bio Science, Walkersville, Md.), and were treated with different concentrations of PPARα agonist (Wy14643 or fenofibrates) for about 18-20 hours. Human primary adipocytes were cultured in Preadipocyte Medium, (Cat #PM—1, Zen-Bio, Inc., Research Triangle Park, NC), and were treated with different concentrations of PPARα agonist (Wy14643 or fenofibrates) for about 18-20 hours.
(§3) Total RNA was purified from cultured cells following the protocol provided by the manufacturer (Trizon method, Invitrogen Inc. Ca). The polymerase chain reaction (PCR) primers and fluorescent probes (TagMan probes) for Pa9, Pa13, and Pa21 were designed from GenBank sequences of accession numbers W30988, AB000584, and NM_080725, respectively. The primers and probes were designed using the software PrimerDesign (Applied Biosystems, Foster City, Calif.). The PCR primers for Pa9 were SEQ ID NO: 7, (5-[…]) and SEQ ID NO: 8 (5-[…]). […] The PCR primers for Pa13 were SEQ ID NO: 10 (5-[…], T) and SEQ ID NO: 11 (5-[…] T). […] The PCR primers for Pa21 were SEQ ID NO: 13 (5-[…] C) and SEQ ID NO: 14 (5-[…]). […] All primers and probes were synthesized by Keystone Labs (Camarillo, Calif.).
(§4) Reverse transcription (RT) and PCR were conducted in one step using “One-Step RT-PCR Master Mix Reagent” kit (Applied Biosystems, Foster City, Calif.) in ABI PRISM 7700 Sequence Detection System (Applied Biosystems). Each reaction was performed in a total volume of 25 μl containing 40 ng of total RNA. The reaction condition was: 48° C. for 30 minutes, 60° C. for 30 minutes, 94° C. for 5 minutes, followed by 40 cycles of 94° C. for 20 seconds and 60° C. for 1 minute. The primers for 18S ribosomal RNA were developed and provided by Applied Biosystems. The measurement of human 18S ribosomal RNA was used as an internal control for normalization of measuring and loading errors. PCR data were collected by Ct value (the cycle number at which logarithmic PCR plots cross a calculated threshold line) according to the manufacturer's guidelines and the value was used to determine the Δ^Ct (Ct of the target gene minus the Ct of 18S ribosomal RNA controls). Relative mRNA level was calculated using the equation 2^−ΔΔCt as described previously (Heid et al., 1996, Genome Res. 6:986-994).

Pa9 gene [2] = assay: Pa9 gene expression by real-time RT-PCR in primary adipocytes; details: 50 uM, about 18-20 hours, vehicle control = 100
Text: as §1, §2
Total RNA was purified from cultured cells following the protocol provided by the manufacturer (Trizon method, Invitrogen Inc. Ca). The polymerase chain reaction (PCR) primers and fluorescent probes (TagMan probes) for Pa9, Pa13, and Pa21 were designed from GenBank sequences of accession numbers W30988, AB000584, and NM_080725, respectively. The primers and probes were designed using the software PrimerDesign (Applied Biosystems, Foster City, Calif.). The PCR primers for Pa9 were SEQ ID NO: 7, (5-[…]) and SEQ ID NO: 8 (5-[…]). […] The PCR primers for Pa13 were SEQ ID NO: 10 (5-[…], T) and SEQ ID NO: 11 (5-[…] T). […] The PCR primers for Pa21 were SEQ ID NO: 13 (5-[…] C) and SEQ ID NO: 14 (5-[…]). […]
Reverse transcription (RT) and PCR were conducted in one step using “One-Step RT-PCR Master Mix Reagent” kit (Applied Biosystems, Foster City, Calif.) in ABI PRISM 7700 Sequence Detection System (Applied Biosystems). […] PCR data were collected by Ct value (the cycle number at which logarithmic PCR plots cross a calculated threshold line) according to the manufacturer's guidelines and the value was used to determine the Δ^Ct (Ct of the target gene minus the Ct of 18S ribosomal RNA controls). Relative mRNA level was calculated using the equation 2^−ΔΔCt as described previously (Heid et al., 1996, Genome Res. 6:986-994).

Pa21 gene [3] = assay: Pa21 gene expression by real-time RT-PCR in HuH7 hepatocytes
Text: as §1, §2, §3, §4

Pa21 gene [4] = assay: Pa21 gene expression by real-time RT-PCR in primary skeletal muscle cells; details: about 18-20 hours, vehicle control = 100
Text: as §1, §2, §3, §4

Pa9 gene [5] = assay: Pa9 gene expression by real-time RT-PCR in HuH7 hepatocytes; details: HuH7 hepatocytes
Text: as §1, §2, §3, §4

Pa21 gene [6] = assay: Pa21 gene expression by real-time RT-PCR in primary adipocytes; details: about 18-20 hours, vehicle control = 100
Text: as §1, §2, §3, §4

Pa13 gene [7] = assay: Pa13 gene expression by real-time RT-PCR in primary skeletal muscle cells; details: about 18-20 hours, vehicle control = 100
Text: as §1, §2, §3, §4

Pa13 gene [8] = assay: Pa13 gene expression by real-time RT-PCR in primary adipocytes; details: about 18-20 hours, vehicle control = 100
Text: as §1, §2, §3, §4

Pa9 gene [9] = assay: Pa9 gene expression by real-time RT-PCR in primary skeletal muscle cells; details: about 18-20 hours, vehicle control = 100
Text: as §1, §2, §3, §4
The nucleotide sequence of the human FDRG gene (AX278133) is provided in SEQ ID NO: 1 and the sequence alignment between W30988 and FDRG gene is shown in FIG. 1. […] Quantitative real-time RT-PCR was performed to test whether gene expression of the human FDRG gene is regulated by PPARα.

[10] = 3 uM, about 20-24 h, vehicle control = 100
[11] = 10 uM, about 20-24 h, vehicle control = 100
[12] = 30 uM, about 20-24 h, vehicle control = 100
[13] = 100 uM, about 20-24 h, vehicle control = 100
[14] = 300 uM, about 20-24 h, vehicle control = 100
[15] = 1 μM, vehicle control = 100 (Table 4)

CC(C)OC(=O)C(C)(C)Oc1ccc(C(=O)c2ccc(Cl)cc2)cc1 [Fenofibrate]
Pa13 (N26311) gene expression, Percentage ± SE (%) (Pa13 gene [1]; [10]): 180 ± 43.9%
Pa13 (N26311) gene expression, Percentage ± SE (%) (Pa13 gene [1]; [11]): 160 ± 55%
Pa13 (N26311) gene expression, Percentage ± SE (%) (Pa13 gene [1]; [12]): 250 ± 4.8%
Pa13 (N26311) gene expression, Percentage ± SE (%) (Pa13 gene [1]; [13]): 750 ± 10.8%
Pa13 (N26311) gene expression, Percentage ± SE (%) (Pa13 gene [1]; [14]): 710 ± 7.3%
Pa9 (W38098) gene expression, Percentage ± SE (%) (Pa9 gene [2]): 127 ± 1.5%
Pa21 (H4960) gene expression, Percentage ± SE (%) (Pa21 gene [3]; [10]): 63.6 ± 17.3%
Pa21 (H4960) gene expression, Percentage ± SE (%) (Pa21 gene [3]; [11]): 227.3 ± 54%
Pa21 (H4960) gene expression, Percentage ± SE (%) (Pa21 gene [3]; [12]): 209.1 ± 20.4%
Pa21 (H4960) gene expression, Percentage ± SE (%) (Pa21 gene [3]; [13]): 300 ± 20.6%
Pa21 (H4960) gene expression, Percentage ± SE (%) (Pa21 gene [3]; [14]): 336.4 ± 24.3%
Pa21 (H4960) gene expression, Percentage ± SE (%) (Pa21 gene [4]; 3 uM): 110 ± 14.5%
Pa21 (H4960) gene expression, Percentage ± SE (%) (Pa21 gene [4]; 10 uM): 290 ± 1.4%
Pa21 (H4960) gene expression, Percentage ± SE (%) (Pa21 gene [4]; 30 uM): 280 ± 52.5%
Pa9 (W38098) gene expression, Percentage ± SE (%) (Pa9 gene [5]; [10]): 110 ± 12.7%
Pa9 (W38098) gene expression, Percentage ± SE (%) (Pa9 gene [5]; [11]): 90 ± 23%
Pa9 (W38098) gene expression, Percentage ± SE (%) (Pa9 gene [5]; [12]): 80 ± 2%
Pa9 (W38098) gene expression, Percentage ± SE (%) (Pa9 gene [5]; [13]): 140 ± 37.1%
Pa9 (W38098) gene expression, Percentage ± SE (%) (Pa9 gene [5]; [14]): 200 ± 11.5%
Pa21 (H4960) gene expression, Percentage ± SE (%) (Pa21 gene [6]; 10 uM): 63 ± 5.6%
Pa21 (H4960) gene expression, Percentage ± SE (%) (Pa21 gene [6]; 50 uM): 109 ± 4.5%
Pa21 (H4960) gene expression, Percentage ± SE (%) (Pa21 gene [6]; 250 uM): 121 ± 17.3%
Pa13 (N26311) gene expression, Percentage ± SE (%) (Pa13 gene [7]; 3 uM): 72.7 ± 30.9%
Pa13 (N26311) gene expression, Percentage ± SE (%) (Pa13 gene [7]; 10 uM): 63.6 ± 11.8%
Pa13 (N26311) gene expression, Percentage ± SE (%) (Pa13 gene [7]; 30 uM): 181.8 ± 3%
Pa13 (N26311) gene expression, Percentage ± SE (%) (Pa13 gene [7]; 100 uM): 218.2 ± 2.9%
Pa13 (N26311) gene expression, Percentage ± SE (%) (Pa13 gene [7]; 300 uM): 309.1 ± 7.4%
Pa13 (N26311) gene expression, Percentage ± SE (%) (Pa13 gene [8]; 10 uM): 70 ± 27.1%
Pa13 (N26311) gene expression, Percentage ± SE (%) (Pa13 gene [8]; 50 uM): 45 ± 13.3%
Pa13 (N26311) gene expression, Percentage ± SE (%) (Pa13 gene [8]; 250 uM): 206 ± 34.4%
Pa9 (W38098) gene expression, Percentage ± SE (%) (Pa9 gene [9]; 3 uM): 120 ± 34.2%
Pa9 (W38098) gene expression, Percentage ± SE (%) (Pa9 gene [9]; 10 uM): 230 ± 15.7%
Pa9 (W38098) gene expression, Percentage ± SE (%) (Pa9 gene [9]; 30 uM): 340 ± 7.4%
Pa9 (W38098) gene expression, Percentage ± SE (%) (Pa9 gene [9]; 100 uM): 350 ± 19.7%
Pa9 (W38098) gene expression, Percentage ± SE (%) (Pa9 gene [9]; 300 uM): 550 ± 14%

CN(CCOc1ccc(CC2SC(=O)NC2=O)cc1)c1ccccn1 (centres unmarked) [Rosiglitazone]
Pa13 (N26311) gene expression, Percentage ± SE (%) (Pa13 gene [1]; [15]): 217 ± 20.2%
Pa21 (H4960) gene expression, Percentage ± SE (%) (Pa21 gene [3]; [15]): 97 ± 17.5%
Pa9 (W38098) gene expression, Percentage ± SE (%) (Pa9 gene [5]; [15]): 147 ± 31.2%
